In this assay the target is T1, GapB (Bacillus cereus, UniProt Q817G8).
T1 construct: gene BC_4583; full gapB gene in pET28a, GapB-His6, E. coli BL21 (DE3), Ni-IMAC and Superdex 200, 42 kDa by SDS-PAGE
As to the kind of experiment: NAD(P)H production at […] nm. It is filed as biochemical. As to conditions: 20 mM glyceraldehyde-3-phosphate, 50 mM Na2HPO4, 5 mM EDTA, pH 7.5, 37°C, 30 min.

T1 sequence (Q817G8 entry or part of it): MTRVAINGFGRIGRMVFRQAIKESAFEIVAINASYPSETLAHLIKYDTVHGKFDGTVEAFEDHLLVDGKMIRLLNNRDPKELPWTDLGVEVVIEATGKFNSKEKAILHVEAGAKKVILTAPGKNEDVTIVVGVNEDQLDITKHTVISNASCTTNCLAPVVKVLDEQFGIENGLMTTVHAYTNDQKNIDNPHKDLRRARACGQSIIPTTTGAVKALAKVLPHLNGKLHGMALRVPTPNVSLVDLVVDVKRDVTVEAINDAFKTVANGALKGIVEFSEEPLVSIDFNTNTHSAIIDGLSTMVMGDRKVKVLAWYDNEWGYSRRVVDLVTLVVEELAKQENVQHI

As to `NC(=O)c1ccc[n+]([C@@H]2O[C@H](COP(=O)(O)OP(=O)(O)OC[C@H]3O[C@@H](n4cnc5c(N)ncnc54)[C@H](OP(=O)(O)O)[C@@H]3O)[C@@H](O)[C@H]2O)c1` [NADP^+], the “NAD(P)H production at 340 nm” value (2 mM NADP+) was “GapB protein has enzyme activities with either NAD^+ or NADP^+ as a cofactor”.

For `NC(=O)c1ccc[n+]([C@@H]2O[C@H](COP(=O)(O)OP(=O)(O)OC[C@H]3O[C@@H](n4cnc5c(N)ncnc54)[C@H](O)[C@@H]3O)[C@@H](O)[C@H]2O)c1` [NAD^+], under “10 mM NAD+”, the “NAD(P)H production at 340 nm” value was “GapB protein has enzyme activities with either NAD^+ or NADP^+ as a cofactor”.

The values above are taken from article PMC7750190, “GapB Is Involved in Biofilm Formation Dependent on LrgAB but Not the SinI/R System in Bacillus cereus 0-9” (Frontiers in Microbiology, 2020).
